Reference: the NIST ThermoML archive (doi:10.1016/j.jct.2016.03.030)

Test: xn = mol fraction of the nth substance listed
Conditions: 100 kPa, Liquid; for viscosity: Falling or rolling sphere viscometry; for mass density: Vibrating tube method

CCC[N+]1(C)CCOCC1.[Br-] [4-methyl-4-propylmorpholinium bromide] + O
Conditions	mass density [kg/m3]	viscosity [mPa·s]
298.15 K, x1 = 0.0336	1084.6	1.651
298.15 K, x1 = 0.0618	1135.4	2.638
298.15 K, x1 = 0.0875	1170.4	4.066
298.15 K, x1 = 0.1298	1213	8.208
298.15 K, x1 = 0.1709	1242.8	15.89
298.15 K, x1 = 0.2036	1260.9	26.67
298.15 K, x1 = 0.254	1282.4	62.45
298.15 K, x1 = 0.2742	1289.4	90.09
298.15 K, x1 = 0.3025	1298.2	154
303.15 K, x1 = 0.0336	1082.5	1.45
303.15 K, x1 = 0.0618	1132.9	2.291
303.15 K, x1 = 0.0875	1167.6	3.483
303.15 K, x1 = 0.1298	1209.9	6.823
303.15 K, x1 = 0.1709	1239.6	12.9
303.15 K, x1 = 0.2036	1257.7	20.98
303.15 K, x1 = 0.254	1279.2	46.52
303.15 K, x1 = 0.2742	1286.1	66.14
303.15 K, x1 = 0.3025	1294.9	108.8
308.15 K, x1 = 0.0336	1080.2	1.281
308.15 K, x1 = 0.0618	1130.2	2.002
308.15 K, x1 = 0.0875	1164.7	3
308.15 K, x1 = 0.1298	1206.8	5.723
308.15 K, x1 = 0.1709	1236.4	10.62
308.15 K, x1 = 0.2036	1254.4	16.76
308.15 K, x1 = 0.254	1275.9	35.35
308.15 K, x1 = 0.2742	1282.8	49.51
308.15 K, x1 = 0.3025	1291.6	79.28
313.15 K, x1 = 0.0336	1077.8	1.14
313.15 K, x1 = 0.0618	1127.5	1.761
313.15 K, x1 = 0.0875	1161.7	2.61
313.15 K, x1 = 0.1298	1203.6	4.854
313.15 K, x1 = 0.1709	1233.1	8.847
313.15 K, x1 = 0.2036	1251.1	13.62
313.15 K, x1 = 0.254	1272.6	27.4
313.15 K, x1 = 0.2742	1279.5	38.4
313.15 K, x1 = 0.3025	1288.3	59.26
318.15 K, x1 = 0.0336	1075.3	1.02
318.15 K, x1 = 0.0618	1124.7	1.559
318.15 K, x1 = 0.0875	1158.7	2.287
318.15 K, x1 = 0.1298	1200.4	4.155
318.15 K, x1 = 0.1709	1229.9	7.459
318.15 K, x1 = 0.2036	1247.8	11.23
318.15 K, x1 = 0.254	1269.2	21.7
318.15 K, x1 = 0.2742	1276.2	30.07
318.15 K, x1 = 0.3025	1285.1	45.23
323.15 K, x1 = 0.0336	1072.3	0.909
323.15 K, x1 = 0.0618	1121.8	1.372
323.15 K, x1 = 0.0875	1155.7	1.988
323.15 K, x1 = 0.1298	1197.2	3.541
323.15 K, x1 = 0.1709	1226.6	6.268
323.15 K, x1 = 0.2036	1244.5	9.267
323.15 K, x1 = 0.254	1265.9	17.23
323.15 K, x1 = 0.2742	1272.9	23.66
323.15 K, x1 = 0.3025	1281.7	34.94
328.15 K, x1 = 0.0336	1069.9	0.812
328.15 K, x1 = 0.0618	1118.8	1.215
328.15 K, x1 = 0.0875	1152.5	1.742
328.15 K, x1 = 0.1298	1193.9	3.047
328.15 K, x1 = 0.1709	1223.2	5.322
328.15 K, x1 = 0.2036	1241.1	7.756
328.15 K, x1 = 0.254	1262.6	13.96
328.15 K, x1 = 0.2742	1269.5	19.1
328.15 K, x1 = 0.3025	1278.4	27.52
333.15 K, x1 = 0.0336	1066.3	0.736
333.15 K, x1 = 0.0618	1115.5	1.088
333.15 K, x1 = 0.0875	1149.1	1.547
333.15 K, x1 = 0.1298	1190.6	2.654
333.15 K, x1 = 0.1709	1219.9	4.582
333.15 K, x1 = 0.2036	1237.8	6.587
333.15 K, x1 = 0.254	1259.2	11.53
333.15 K, x1 = 0.2742	1266.2	15.71
333.15 K, x1 = 0.3025	1275.1	22.11
338.15 K, x1 = 0.0336	1064.5	0.668
338.15 K, x1 = 0.0618	1113.1	0.979
338.15 K, x1 = 0.0875	1145.3	1.378
338.15 K, x1 = 0.1298	1187.3	2.426
338.15 K, x1 = 0.1709	1216.5	4.142
338.15 K, x1 = 0.2036	1234.4	5.636
338.15 K, x1 = 0.254	1255.9	9.633
338.15 K, x1 = 0.2742	1262.9	12.97
338.15 K, x1 = 0.3025	1271.7	18.05
343.15 K, x1 = 0.0336	1061.9	0.63
343.15 K, x1 = 0.0618	1110.2	0.925
343.15 K, x1 = 0.0875	1142	1.303
343.15 K, x1 = 0.1298	1183.9	2.269
343.15 K, x1 = 0.1709	1213.1	4.062
343.15 K, x1 = 0.2036	1231	4.879
343.15 K, x1 = 0.254	1252.5	8.213
343.15 K, x1 = 0.2742	1259.5	10.96
343.15 K, x1 = 0.3025	1268.4	14.99
